# Reference: US20210038732A1, “ANTICANCER MICRORNA AND LIPID FORMULATIONS THEREOF” (INTERNA TECHNOLOGIES B.V., priority 2018, published 2021)
# What was measured:
# 4T1 mouse tumor cells = assay: Re-challenge of surviving treated mice with 4T1 cells (Example 4.4); type: in vivo
# Protocol: To investigate the long-term immunity in miRNA-193a treated mice against 4T1 cells, on day 75 after inoculation, mice treated with miRNA-193a and 8 naïve (non-tumor bearing) mice were re-challenged by subcutaneous injection of 3×10^5 4T1 mouse tumor cells in PBS (0.1 mL/mouse) into the right front flank. TV and BW were monitored for 3 weeks. Then, to investigate the immunization status of miRNA-193a treated mice against other cell types, on day 101, mice treated with miRNA-193a and 8 naïve (non-tumor bearing) mice were re-challenged by subcutaneous injection of H22 (mouse liver tumor cells) cells in PBS (0.1 mL/mouse) into the right lower flank.
# A2058 = assay: Caspase 3/7 apoptosis assay; type: cell-based, human; details: 10 nM, normalized to mock
# Protocol: (§1) Depending on cancer cell type 3000-6000 cells were seeded in a 96 well plate. After cells attached, they were transfected with different concentrations of miRNA-193a and apoptosis induction was measured at different time points. This assay was performed using Promega kit. 100 uL of caspase reagent was added to 100 uL of media in each well in 96-well plate and incubated for 2 hours in the dark at room temperature. The luminescent signal was read on a luminescent plate reader.
# (§2) Different biological effects of miRNA-193a-3p have been tested in various cancer cell lines (see Table 13). For this, various cells were treated with miRNA-193a at different concentrations (1, 3, 10 nM). For all experiments controls (untreated, mock and scrambled) were measured. All assays were performed at 24h, 48h and 72h time points. Data shown in Table 13 are the results for miRNA-193a at 10 nM concentration at indicated time points. All the results have been quantified and normalized to the mock control.
# (§3) miRNA-193a treatment in various cancer cell lines decreased cell viability over time as measured by either an MTS assay or by cell count. It enhanced apoptosis induction over time as measured by a caspase 3/7 apoptosis assay. […] It is of note that due to intrinsic characteristics and gene mutation status of each cell line, performing one method to detect apoptosis is not always ideal for all cell lines.
# A549, H460 = assay: Caspase 3/7 apoptosis assay; type: cell-based, human; details: 10 nM, normalized to mock
# Protocol: as §1, §2, §3
# HeP3B, SNU449 = assay: Caspase 3/7 apoptosis assay; type: cell-based, human; details: 10 nM, normalized to mock
# Protocol: as §1, §2, §3
# Huh7 = assay: Caspase 3/7 apoptosis assay; type: cell-based, human; details: 10 nM, normalized to mock
# Protocol: as §1, §2, §3
# Huh7, H1299, and HCT116 = assay: Cleaved-parp protein on western blot; type: cell-based; details: data not shown
# Source text: as §3
# [1] = system: 3′ untranslated regions (UTR) of NT5E (CD73); assay: 3′UTR luciferase assay in Hela cells; type: cell-based; details: 10 nM
# Protocol: Firefly luciferase reporter constructs containing the 3′ untranslated regions (UTR) of NT5E (CD73) were transfected in Hela cells along with 10 nM miRNA-193a-3p or a scrambled control. Cell extracts were prepared 24 hours after transfection, and luciferase activity was measured using the Dual Luciferase Reporter Assay System (Promega). If the 3′UTR is a target of the miRNA, miRNA will interact with 3′UTR and provides lower luciferase signal.
# [2] = system: A20 Reticulum cell sarcoma (lymphoma); assay: Primary tumor growth, syngeneic model; type: in vivo, mice; details: 10 mg/kg i.v BIW x 3-4 weeks, vs PBS
# Source text: (§4) In this study, the effect of miRNA-193a formulated in diamino lipid nanoparticles was investigated on the primary tumor growth in a panel of twelve syngeneic tumor models. Six to eight weeks mice (Shanghai Lingchang Bio-Technology Co. Ltd, Shanghai, China) were subcutaneously injected with an appropriate number of syngeneic cancer cells, depending on the cancer model (see Table 18). At the time of randomization, tumor volume (TV) was approximately 80-120 mm^3. Body weights and TVs (caliper measurements) were determined 2-3 times/week. After randomization (indicated as day 0) mice received PBS or miR-193a (formulated in diamino lipid nanoparticles) treatments as shown in Table 19. Each tumor model had two groups as depicted in Table 19. Mice were scheduled to be euthanized after two weeks of follow up after a maximum of four weeks of treatment.
# B16-BL6 Melanoma = assay: Primary tumor growth, syngeneic model; type: in vivo, mice; details: 10 mg/kg i.v BIW x 3-4 weeks, vs PBS
# Source text: as §4
# B16-F10 Melanoma = assay: Primary tumor growth, syngeneic model; type: in vivo, mice; details: 10 mg/kg i.v BIW x 3-4 weeks, vs PBS
# Source text: as §4
# CT26 Colon carcinoma = assay: Primary tumor growth, syngeneic model; type: in vivo, mice; details: 10 mg/kg i.v BIW x 3-4 weeks, vs PBS
# Source text: as §4
# [3] = system: EMT-6 Breast mammary carcinoma; assay: Primary tumor growth, syngeneic model; type: in vivo, mice; details: 10 mg/kg i.v BIW x 3-4 weeks, vs PBS
# Source text: as §4
# H22 Hepatocarcinoma = assay: Primary tumor growth, syngeneic model; type: in vivo, mice; details: 10 mg/kg i.v BIW x 3-4 weeks, vs PBS
# Source text: as §4
# Hepa 1-6 Hepatoma = assay: Primary tumor growth, syngeneic model; type: in vivo, mice; details: 10 mg/kg i.v BIW x 3-4 weeks, vs PBS
# Source text: as §4
# LL/2 Lung carcinoma = assay: Primary tumor growth, syngeneic model; type: in vivo, mice; details: 10 mg/kg i.v BIW x 3-4 weeks, vs PBS
# Source text: as §4
# MC38 Colon carcinoma = assay: Primary tumor growth, syngeneic model; type: in vivo, mice; details: 10 mg/kg i.v BIW x 3-4 weeks, diamino lipid nanoparticles, vs PBS, median tumor volume
# Source text: as §4
# [4] = system: Pan02 Pancreatic adenocarcinoma; assay: Primary tumor growth, syngeneic model; type: in vivo, mice; details: 10 mg/kg i.v BIW x 3-4 weeks, vs PBS
# Source text: as §4
# RM-1 Prostate cancer = assay: Primary tumor growth, syngeneic model; type: in vivo, mice; details: 10 mg/kg i.v BIW x 3-4 weeks, vs PBS
# Source text: as §4
# [5] = system: Renca Renal adenocarcinoma; assay: Primary tumor growth, syngeneic model; type: in vivo, mice; details: 10 mg/kg i.v BIW x 3-4 weeks, vs PBS
# Source text: as §4
substance,measurement,setting,value
"miRNA-193a: duplex of the miRNA-193a-3p of SEQ ID NO: 218 (mimic, sense) with antisense strand SEQ ID NO: 219; naked in vitro, formulated in vivo (sense UGGGACUUUGUAGGCCAGUUTT; antisense AACUGGCCUACAAAGUCCCAGU; chemistry not given here; listed as Homo sapiens)",Treated mice that showed tumor take when re-challenged with 4T1 cells,4T1 mouse tumor cells; re-challenge day 75,3 mice
same,Tumor take/growth after re-challenge with 4T1 cells,"4T1 mouse tumor cells; re-challenge day 75, 14 days post end of treatment, vs naïve mice",Pronounced prevention of tumor take/growth
same,Apoptosis (48/72 h),A2058,↑↑ (Induction > 2x)
same,Apoptosis (48/72 h),"A549, H460",↑↑ (Induction > 2x)
same,Apoptosis (48/72 h),"HeP3B, SNU449",↑ (Induction < 2x)
same,Apoptosis (48/72 h),Huh7,↑ (Induction < 2x)
same,Cleaved-parp protein on western blot,"Huh7, H1299, and HCT116",enhanced cleaved-parp protein
same,Luciferase activity of reporter construct containing mutated form of the CD73 3′UTR,[1],did not affect the luciferase activity
same,Luciferase activity of reporter construct containing NT5E 3′UTR region,[1]; vs mock and scrambled controls,downregulation of the activity
same,% TGI by miRNA-193a,[2],54%
same,% TGI by miRNA-193a,B16-BL6 Melanoma,34%
same,% TGI by miRNA-193a,B16-F10 Melanoma,56%
same,% TGI by miRNA-193a,CT26 Colon carcinoma,12%
same,% TGI by miRNA-193a,[3],42%
same,% TGI by miRNA-193a,H22 Hepatocarcinoma,45%
same,% TGI by miRNA-193a,Hepa 1-6 Hepatoma,7%
same,% TGI by miRNA-193a,LL/2 Lung carcinoma,64%
same,% TGI by miRNA-193a,MC38 Colon carcinoma,71%
same,% TGI by miRNA-193a,[4],46%
same,% TGI by miRNA-193a,RM-1 Prostate cancer,25%
same,% TGI by miRNA-193a,[5],22%
